Measured values from patent US20250325529A1, “INHIBITORS OF FATTY ACID BINDING PROTEINS (FABPs), METHODS OF USE AND METHODS OF MAKING” (Celloram, inc., priority 2024, published 2025).
Entries after “also recorded” stand apart in the source; their conditions may differ.

Tests used:
FABP7 = FABP7 (Homo sapiens (Human), UniProt O15540); assay: Fluorescence (ANS) competition binding assay, FABP7; settings: ANS displacement
Method: (§1) This example illustrates a two-step fluorescence binding assay study used to determine the binding affinity of the various inhibitor compounds disclosed herein with the various FABPs: FABP3, FABP4, FABP5 and FABP7. Further secondary screening studies were carried out for compounds with high binding affinities toward the FABPs and based on their ability to activate the nuclear receptors PPARα, PPARγ, or PPARδ.
(§2) Binding assays for FABP3, FABP4, FABP5 and FABP7 were carried out by fluorescence titrations. His-tagged FABPs were bacterially expressed in E. coli, purified using Ni Sepharose beads, and the equilibrium dissociation constants (Kd) that characterize their interactions with different inhibitor compounds were measured by fluorescence competition assays. The method entails two steps as described in e.g., Lin, Q. et al., “Ligand selectivity of the peroxisome proliferator-activated receptor alpha,” Biochemistry 38, 185-190, doi:10.1021/bi9816094 [pii](1999). In the first step, Kd for the association of the protein with the fluorescent fatty acid probe ANS was measured. Protein (2 μM) was titrated with ANS from a concentrated solution in DMSO. Ligand binding was monitored by following the increase in the fluorescence of the ligand upon binding to the protein, and Kd for the association of ANS with the each FABP was computed from titration curves as described in e.g., Norris, A. W. & Li, E., “Fluorometric titration of the CRABPs,” Methods Mol Biol 89, 123-139 (1998)). In the second step, Kds for binding of non-fluorescent ligands were measured by monitoring their ability to displace ANS in the binding pocket of the protein. Each FABP was precomplexed with ANS at 1:1 molar ratio and titrated with the different compounds whose binding was reflected by a decrease in probe fluorescence. Kds were extracted from the EC50 of the competition curve and the measured Kd for ANS.

OVCAR5 cells = assay: Proliferation assay (Incucyte confluency), OVCAR5; assay type: cell-based, human; settings: 4 days
Method: (§3) COS-7, MDA-MB-231, and HepG2, were cultured in Dulbecco's modified Eagle's medium (DMEM) supplemented with 10% fetal bovine serum (Invitrogen Life Sciences, Carlsbad, CA). BT-549, OVCAR5 and OVCAR8 cells were cultured in L-Glutamine containing RPMI medium supplemented with 10% fetal calf serum (Invitrogen Life Sciences, Carlsbad, CA). The primary Human Mammary Epithelial Cells (HMEC) were cultured in mammary epithelial cell complete medium (basal medium plus rH-Insulin (5 μg/mL); L-Glutamine (6 mM); Epinephrine (1 μM); Apo-Transferrin (5 μg/mL); rH-TGF-α (0.5 ng/mL); ExtractP (0.4%); Hydrocortisone Hemisuccinate (100 ng/mL)).
(§4) 2000 cells were plated in each well of 96-well plate. The next day cells were treated with compounds and incubated in Incucyte for 4 days. Images taken every 4 hours for the duration of the time were analyzed to calculate percentage of confluency in response to the treatments. Growth inhibition was calculated as 1—(percentage of viable cells out of untreated cells).

FABP3 = FABP3 (Homo sapiens (Human), UniProt P05413); assay: Fluorescence (ANS) competition binding assay, FABP3; settings: ANS displacement
Sequence of FABP3 (P05413 whole entry, species assumed): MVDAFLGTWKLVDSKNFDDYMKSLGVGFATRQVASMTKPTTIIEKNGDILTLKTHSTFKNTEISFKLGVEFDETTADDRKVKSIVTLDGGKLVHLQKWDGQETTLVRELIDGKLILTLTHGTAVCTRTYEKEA
Method: as §1, §2

OVCAR8 cells = assay: Proliferation assay (Incucyte confluency), OVCAR8; assay type: cell-based; settings: Homo sapiens, OVCAR-8, 96 h, 4 days, read-out: IC50, inhibition of OVCAR8 proliferation
Method: as §3, §4

FABP5 = FABP5 (Homo sapiens (Human), UniProt Q01469); assay: Fluorescence (ANS) competition binding assay, FABP5; settings: ANS displacement
Sequence of FABP5 (Q01469 whole entry, species assumed): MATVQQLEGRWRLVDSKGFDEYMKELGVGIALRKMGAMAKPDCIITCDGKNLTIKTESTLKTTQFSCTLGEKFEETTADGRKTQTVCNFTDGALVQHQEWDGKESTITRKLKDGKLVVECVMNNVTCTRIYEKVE
Method: as §1, §2

BT-549 cells = assay: Proliferation assay (Incucyte confluency), BT-549; assay type: cell-based; settings: Homo sapiens, 96 h, 4 days, read-out: IC50, inhibition of proliferation
Method: as §3, §4

PPARγ = PPARγ (Homo sapiens (Human), UniProt P37231); assay: Transcriptional activation assay in COS7 cells, PPARγ; assay type: cell-based; settings: PPRE luciferase reporter, PD151 and PD152 at 10 μM
Sequence of PPARγ (P37231 whole entry, species assumed): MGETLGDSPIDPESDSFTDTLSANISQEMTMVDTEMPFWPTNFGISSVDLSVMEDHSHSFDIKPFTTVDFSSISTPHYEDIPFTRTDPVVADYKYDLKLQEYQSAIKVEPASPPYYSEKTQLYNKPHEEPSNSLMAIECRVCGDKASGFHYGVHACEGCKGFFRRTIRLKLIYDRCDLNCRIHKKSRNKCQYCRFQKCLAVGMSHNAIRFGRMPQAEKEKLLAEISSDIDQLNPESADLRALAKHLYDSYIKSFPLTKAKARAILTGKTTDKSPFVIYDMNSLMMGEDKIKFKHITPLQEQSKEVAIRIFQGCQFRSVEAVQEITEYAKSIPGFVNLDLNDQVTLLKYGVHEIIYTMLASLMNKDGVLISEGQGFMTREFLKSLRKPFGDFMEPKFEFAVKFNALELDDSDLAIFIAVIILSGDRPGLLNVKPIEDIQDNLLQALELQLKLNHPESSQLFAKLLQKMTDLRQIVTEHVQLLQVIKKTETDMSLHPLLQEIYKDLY
Method: (§5) COS-7 were cultured in 6-well plates and co-transfected with either a luciferase reporter driven by 3 copies of a PPRE and expression vector for either PPARδ, PPARα or PPARγ together with a vector harboring cDNA for β-galactosidase, serving as a transfection control. To test whether FABP4 or FABP5 mediate activation of their cognate receptors PPARγ and PPARδ, respectively, cells were also co-transfected with a plasmid harboring sequence of either FABP4 or FABP5. 18 h post-transfection, cells were placed in a serum-free medium and treated with agonist/compound. 18 h. later, cells were lysed, luciferase activity was assayed (Promega, WI, USA) and corrected for transfection efficiency by the activity of β-galactosidase.
(§6) Transcriptional activation assays were carried out utilizing COS7 cells as described above.

MB-231 cells = assay: Proliferation assay (Incucyte confluency), MB-231; assay type: cell-based; settings: Homo sapiens, 96 h, 4 days, read-out: IC50, inhibition of proliferation
Method: as §3, §4

PPARδ = PPARδ (Homo sapiens (Human), UniProt Q03181); assay: Transcriptional activation assay in COS7 cells, PPARδ; assay type: cell-based; settings: PPRE luciferase reporter, PD151 and PD152 at 10 μM
Sequence of PPARδ (Q03181 whole entry, species assumed): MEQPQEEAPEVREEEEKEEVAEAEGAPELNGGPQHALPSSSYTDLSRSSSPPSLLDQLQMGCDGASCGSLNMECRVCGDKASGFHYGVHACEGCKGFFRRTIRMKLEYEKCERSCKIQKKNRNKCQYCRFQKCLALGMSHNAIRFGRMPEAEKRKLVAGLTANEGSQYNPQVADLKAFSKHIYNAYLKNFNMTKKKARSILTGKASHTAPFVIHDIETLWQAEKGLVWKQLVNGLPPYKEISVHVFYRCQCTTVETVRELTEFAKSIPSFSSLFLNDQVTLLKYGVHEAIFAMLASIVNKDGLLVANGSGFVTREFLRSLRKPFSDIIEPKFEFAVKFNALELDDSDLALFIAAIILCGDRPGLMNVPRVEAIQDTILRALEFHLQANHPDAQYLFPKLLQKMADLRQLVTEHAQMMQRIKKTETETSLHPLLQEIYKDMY
Method: as §5, §6

HepG2 cells = assay: Lipid uptake assay (Nile Red), in vitro liver steatosis model; assay type: cell-based
Method: HepG2 cells: 5000 cells were plated in 96-well plate. The next day cells were treated with tested compounds for 4 hours and then treated with 1 mM oleic acid for additional 24 hours. Cells were then stained with Nile Red and lipid content was measured using Spectra Max i3X plate reader (Molecular Devices) and quantified with the SoftMax Pro 6 software.

Sequence of FABP7 (O15540 whole entry, species assumed): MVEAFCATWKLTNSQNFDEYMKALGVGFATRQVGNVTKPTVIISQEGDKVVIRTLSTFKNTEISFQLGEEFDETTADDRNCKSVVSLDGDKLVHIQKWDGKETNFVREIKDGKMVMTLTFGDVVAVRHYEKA

CC(C)Oc1nc(NC(=O)CSCC(=O)O)c(Cl)cc1Cl [PD152, 2-((2-((3,5-dichloro-6-isopropoxypyridin-2-yl)amino)-2-oxoethyl)thio)acetic acid]
Kd (FABP7): 989 nM | Inhibition of OVCAR5 proliferation (OVCAR5 cells): inhibited proliferation of the two cell lines in a dose-dependent manner | Kd (FABP3): 188 nM | IC50 (OVCAR8 cells): 665 nM | Kd (FABP5): 28 nM | IC50 (BT-549 cells): 1040 nM | Activation of transcription by PPARγ (PPARγ): None of these tested compounds activated; also recorded: none of the tested compounds PD151 and PD152 activated transcription | IC50 (MB-231 cells): 603 nM | Activation of transcription by PPARδ (PPARδ): None of these tested compounds activated; also recorded: none of the tested compounds PD151 and PD152 activated transcription | IC50 (HepG2 cells; Homo sapiens, compound 4 h then oleic acid 1 mM 24 h, Nile Red, read-out: IC50 for inhibition of lipid uptake): 553 nM | Treatment concentrations at which lipid uptake was markedly inhibited (HepG2 cells; oleic acid 1 mM): > 0.2 µM
